For assay [1], the system named is Streptococcus isolated from cow's milk. Nature of the assay: Streptococcus germs cultured in a lab setting.
In another assay the test system is mycoplasma. Kind of assay: Mycoplasma disease treatment. To be noted: three sheep. The class given is in vivo. On the procedure:
The experiment was at four sheep farms. The sheep suffered from cough and high temperature (42° C.). When performing autopsy on dead sheep, the congestion in the lungs was clear. […] Ampicillin only affects the cell wall.
Another 10 sick sheep from each farm were isolated and treated with 5 ml of Tylosin and Enrofloxacin.

The subject of assay [2] is HT-1080 cells (fibrosarcoma cell line). Nature of the assay: XTT proliferation assay on HT-1080 cells. The class given is cell-based. The note with it: Homo sapiens. (In general: Tetrazolium assays rely on reduction of a dye to a coloured formazan, in cell work by metabolically active cells.)
Assay [3] has as its system NHDF cells (Normal Human Dermal Fibroblast cell line). Kind of assay: XTT proliferation assay on NHDF cells. The assay is classed as cell-based. On the procedure:
FIGS. 20-23 and Tables F1-F4 relate to a study to determine the potency of novel natural extract compounds in inhibiting the proliferation of Normal Human Dermal Fibroblast cell line (NHDF cells). […] In this study: Compound I, III and IV which are arrangements of compound according to the present invention are evaluated in a XTT proliferation assay for 72 hours to determine its potency in inhibiting the proliferation of NHDF cells. Traditionally, the in-vitro determination of toxic effects of unknown compounds has been performed by counting viable cells after staining with a vital dye. The XTT system is a mean of measuring the activity of living cells via mitochondrial dehydrogenases. The XTT method is simple, accurate and yields reproducible results. […] Solutions of XTT, prepared in medium or balances salt solutions without phenol red, are yellowish in colour. Mitochondrial dehydrogenases of viable cells cleave the tetrazolium ring of XTT yielding orange formazon crystals which are soluble in aqueous solutions. The resulting orange colour is spectrophotometrically measured. The bio-reduction is XTT is inefficient but can be potentiated by the addition of an electron coupling agent such as phenazine methosulphate (PMS) to the reaction. An increase or decrease in cell numbers results in a concomitant change in the amount of formazon formed, indicating the degree of cytotoxicity caused by the test material. In the foregoing study the following kits and reagents were used: • Cells: NHDF, a Normal Human Dermal Fibroblast cell line (Lonza) • Media: FGM-2 bullet kit media • Cell culture T75 flasks (BD-Falcon-LAB353136) • 96 well cell clear tissue culture treated plates (BD-Falcon-LAB353072) • Dimethyl Sulphoxide (DMSO) (Sigma-D2650) • XT (Sigma-[…]) • PMS (Sigma-[…]) In the foregoing study, three arrangement of compound according to the present invention, which in FIGS. 20-23 and Tables F1-F4 are designated as compounds I, III and IV, were tested. In the foregoing study, the control or vehicle was sterile deionized water. In regard to experimental procedure, for seeding in a 96-well plate, the cells were re-suspended to a density of […] of complete FGM-2 Bullet kit medium. 80 μL of this cell suspension was added per well to seed 2000 cells per well. […] In the foregoing study, the following points relate to compound dilution and treatment: • 20 μL of stock (100×) was serially diluted (2×) in 20 μL of sterile deionized water. • 20 μL of each dilution was then added in triplicates in the previously seeded 96-well plate. • Cells treated with deionized water served as control. • 100 μL of complete Ham's F12 medium served as media blank for the data analysis. • 200 μL of PBS was added in all corner wells of the assay plate. Plate was then incubated for 72 hours in an incubator with 5% CO2 at 37° C. In the foregoing study, the following points relate to termination: • XTT reagent-1 mg/mL solution of XTT was made in serum-free Ham's F12 medium. […] The data was analyzed using GraphPad Prism Software. In regard to data generation in the foregoing study: • Raw data of OD values was obtained in the form of excel sheet from Victor X5 Multi-label Plate Reader. • Average of media blank and average of control was calculated. • Average media blank was subtracted from each experimental well and control.

Another assay has as its system Pasteurella. Kind of assay: Pasteurella disease treatment. To be noted: second group of 10 sheep, both antibiotics together.

As usually defined, the inhibition is the percentage by which the read-out fell short of the control. For orientation: % Inhibition means the share of the control response that was lost under treatment.

Regarding `CC1(C)S[C@@H]2[C@H](NC(=O)[C@H](N)c3ccccc3)C(=O)N2[C@H]1C(=O)O` [Ampicillin], in assay [1], the killing of germs result is “not all germs were killed”. Besides, the outcome of treatment in the assay on mycoplasma is recorded as “they were not cured”.
For `COc1cccc2c1C(=O)c1c(O)c3c(c(O)c1C2=O)C[C@@](O)(C(=O)CO)C[C@@H]3O[C@H]1C[C@H](N)[C@H](O)[C@H](C)O1` [Doxorubicin], in assay [2] (Doxorubicin 0.0002 μM), the inhibition at 0.0002 µM stood at 16.1%. For the same compound, in assay [2] (Doxorubicin 0.0005 μM), the inhibition at 0.0005 µM was found to be 14.9%. Further, in assay [2] (Doxorubicin 0.0014 μM), the inhibition at 0.0014 µM amounted to 22.1%. In addition, at 0.0041 µM the inhibition in assay [2] (Doxorubicin 0.0041 μM) was 28.9%. In assay [2] (Doxorubicin 0.0123 μM), this compound displayed an inhibition at 0.0123 µM of 63.6%. Besides, at 0.037 µM the inhibition in assay [2] (Doxorubicin 0.0370 μM) was 76.4%. The inhibition at 0.1111 µM in assay [2] (Doxorubicin 0.1111 μM) is 77.7%. Also, the inhibition at 0.3333 µM in assay [2] (Doxorubicin 0.3333 μM) was found to be 91%. Also, the inhibition at 1 µM amounted to 98.2% in assay [2] (Doxorubicin 1 μM) and 86.4% in assay [3] (Homo sapiens, Doxorubicin 1 μM). The “% Inhibition” value in assay [3] (Doxorubicin 0.000 μM) was 24.6%. Besides, the inhibition at 0.001 µM in assay [3] (Homo sapiens, Doxorubicin 0.001 μM) was 17.9%. The inhibition at 0.004 µM in assay [3] (Homo sapiens, Doxorubicin 0.004 μM) is 25.9%. Also, in assay [3] (Homo sapiens, Doxorubicin 0.01 μM), the inhibition at 0.01 µM was determined as 26.9%. The inhibition at 0.04 µM in assay [3] (Homo sapiens, Doxorubicin 0.04 μM) stood at 33.9%. Besides, in assay [3] (Homo sapiens, Doxorubicin 0.11 μM), the inhibition at 0.11 µM came to 37.5%. Moreover, in assay [3] (Homo sapiens, Doxorubicin 0.33 μM), the inhibition at 0.33 µM turned out to be 68.6%. The inhibition at 3 µM in assay [3] (Homo sapiens, Doxorubicin 3 μM) was found to be 57.1%.
For `NCC[C@H](O)C(=O)N[C@@H]1C[C@H](N)[C@@H](O[C@H]2O[C@H](CN)[C@@H](O)[C@H](O)[C@H]2O)[C@H](O)[C@H]1O[C@H]1O[C@H](CO)[C@@H](O)[C@H](N)[C@H]1O` [amikacin], the killing of germs result in assay [1] is given as “not all germs were killed”.
On the same count and under the same terms, to `CC1=C(C(=O)O)N2C(=O)[C@@H](NC(=O)[C@H](N)c3ccccc3)[C@H]2SC1` [cephalexin] belongs “not all germs were killed”; to `O=C(O)c1cn(C2CC2)c2cc(N3CCNCC3)c(F)cc2c1=O` [ciprofloxacin], “not all germs were killed”.
Still for that read-out and setting: under `Cc1onc(-c2ccccc2Cl)c1C(=O)N[C@@H]1C(=O)N2[C@@H]1SC(C)(C)[C@@H]2C(=O)O` [cloxacillin] stands “not all germs were killed”.
Regarding `CCN1CCN(c2cc3c(cc2F)c(=O)c(C(=O)O)cn3C2CC2)CC1` [enrofloxacin], the “speed of improvement versus product group” value in the assay with Pasteurella is “slower than in the first group”. The killing of germs result in assay [1] is given as “not all germs were killed”.
For the compound `CC[C@H]1OC(=O)[C@H](C)[C@@H](O[C@H]2C[C@@](C)(OC)[C@@H](O)[C@H](C)O2)[C@H](C)[C@@H](O[C@@H]2O[C@H](C)C[C@H](N(C)C)[C@H]2O)[C@](C)(O)C[C@@H](C)C(=O)[C@H](C)[C@@H](O)[C@]1(C)O` [erythromycin], in assay [1], the killing of germs result is “not all germs were killed”.
Same read-out and setting: under `[H]/N=C(/N)N[C@H]1[C@H](O)[C@@H](O)[C@H](O[C@@H]2O[C@@H](C)[C@](O)(C=O)[C@H]2O[C@@H]2O[C@@H](CO)[C@H](O)[C@@H](O)[C@@H]2NC)[C@@H](N/C(N)=N\[H])[C@@H]1O` [streptomycin] stands “not all germs were killed”.
Spiramycin: the killing of germs entry in assay [1] is on record as “not all germs were killed”.
With Tylozin, in assay [1], the killing of germs result is recorded as “not all germs were killed”.
For the compound gentamicin, the killing of germs entry in assay [1] is recorded as “not all germs were killed”.
For the compound neomycin, the killing of germs result in assay [1] is listed as “not all germs were killed”.
penicillin: the killing of germs entry in assay [1] is “not all germs were killed”.

The values are drawn from patent publication US10842829B2, “Natural product to improve immunity and combat viral diseases, bacterial diseases, fungal diseases, and cancer diseases” (priority 2017, dated 2020).
